Source: patent US7572600B2, “Enzymatic activities in chemokine-mediated inflammation” (Chemocentryx, Inc., priority 2004, dated 2009)
Where no end group is shown, it is not given here.

Legend:
CCR1 = biological target: T1, CCR1 (Homo sapiens, UniProt P32246); assay: Competition binding with 125I-MIP-1α on human monocytes; set-up: endogenous in cells; host or cells: human CD14+ monocytes from buffy coats
T1 sequence (P32246 1-355): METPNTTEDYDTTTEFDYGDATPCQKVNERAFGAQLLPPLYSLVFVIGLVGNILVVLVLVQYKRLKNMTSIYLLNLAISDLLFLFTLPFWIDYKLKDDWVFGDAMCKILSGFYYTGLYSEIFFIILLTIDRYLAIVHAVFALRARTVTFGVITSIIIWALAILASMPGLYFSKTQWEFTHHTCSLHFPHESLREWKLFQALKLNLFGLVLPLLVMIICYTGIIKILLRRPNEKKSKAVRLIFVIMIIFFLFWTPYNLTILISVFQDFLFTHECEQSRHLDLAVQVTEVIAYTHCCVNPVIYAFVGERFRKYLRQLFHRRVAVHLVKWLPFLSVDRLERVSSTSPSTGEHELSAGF
Description: Binding assay. Competition binding studies were conducted using monocytes, L1.2-CCR1 or L1.2-FPRL1 cells. Cells were incubated for 3 hr at 4° C. with ^125I-MIP-1α (final concentration ˜0.05 nM) or ^125I-WKYMVm (final concentration ˜0.01 nM) in buffer (25 mM HEPES, 140 mM NaCl, 1 mM CaCl2, 5 mM MgCl2 and 0.2% BSA, adjusted to pH 7.1) in the presence of increasing amounts of unlabeled chemokine. Reactions were aspirated onto PEI-treated GF/B glass filters using a cell harvester (Packard). Filters were washed twice (25 mM HEPES, 500 mM NaCl, 1 mM CaCl2, 5 mM MgCl2, adjusted to pH 7.1). Scintillant (MicroScint-10; 35 μl) was added to the filters and counted in a Packard Topcount scintillation counter. Data were analyzed and plotted using Prism (GraphPad Software, San Diego, Calif.).

[1] = tested on: murine bone marrow neutrophils; assay: Calcium responses and chemotaxis in murine bone marrow neutrophils; type: cell-based, mouse; conditions: murine bone marrow neutrophils (not shown)
FPRL1 = biological target: T2, FPRL1 (Homo sapiens, UniProt P25090); assay: Receptor signaling (calcium mobilization) in L1.2-FPRL1 cells; type: cell-based; set-up: expressed in transfected cells; conditions: for calcium mobilization in the FPRL1 transfectant: L1.2 cells stably expressing human FPRL1, undigested
T2 sequence (P25090 1-351): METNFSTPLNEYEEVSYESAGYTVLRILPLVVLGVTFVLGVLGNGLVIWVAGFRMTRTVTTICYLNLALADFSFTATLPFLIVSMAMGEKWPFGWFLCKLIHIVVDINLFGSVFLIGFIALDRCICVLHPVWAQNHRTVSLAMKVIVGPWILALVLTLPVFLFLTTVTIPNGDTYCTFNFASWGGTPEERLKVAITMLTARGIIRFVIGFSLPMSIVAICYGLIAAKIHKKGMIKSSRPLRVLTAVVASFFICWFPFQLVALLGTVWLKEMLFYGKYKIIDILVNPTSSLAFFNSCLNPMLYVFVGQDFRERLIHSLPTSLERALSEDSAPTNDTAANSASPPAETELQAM
Description: (§1) Receptor signaling assay. For individual measurements, cells were loaded for 45 min at room temperature with 2 μM indo-1/AM (Invitrogen, Carlsbad Calif.) in culture medium, then washed with 10 ml PBS and resuspended at 10^6 cells/ml in HBSS containing 0.1% BSA. Cytosolic calcium levels were determined using a Photon Technology International fluorimeter (excitation at 350 nm, ratio of dual emission at 400 and 490 nm). For measuring calcium dose responses, cells were analyzed with a Fluorometric Imaging Plate Reader 384 (FLIPR^384) (Molecular Devices, Sunnyvale, Calif.). Cells were loaded for 1 hr at 37° C. with 5 μM fluo-4 in HBSS with 0.1% BSA, then washed, transferred to black-wall 96-well plates, and subsequently excited at 505 nm with emission recorded at 530 nm with a standard protocol provided by the manufacture. Cells were stimulated with agonists 20 s after the monitoring of fluorescence began. Data were analyzed and plotted in arbitrary units of fluorescence using Prism. To ensure that responses were specific to FPRL1, we utilized a selective small-molecule antagonist of human FPRL1, generated by ChemoCentryx, which was optimized from a high throughput compound library screening approach.
Since FPRL1 has been reported to interact with low affinity and/or potency with a spectrum of potential pathogenic ligands of viral, bacterial and endogenous origin, we performed comparative functional analyses to determine the precise functional domain for the SHAAGtide (FIG. 14). SHAAGtides containing N-terminal and C-terminal truncations and extensions were synthesized, and potencies for receptor signaling in L1.2-FPRL1 cells were tested. […] After removal of the N-terminal amino acid (Met) from SHAAGtide, its potency is reduced approximately 10 fold. Removal of the first two N-terminal amino acids (Met-Leu) totally abolished SHAAGtide's activity on FPRL1. Conversely, removal of the C-terminal three amino residues (AAG) from SHAAGtide had no effect on its activity on FPRL1. Removal of the C-terminal six residues (LSHAAG) reduced the peptide's potency only 3-fold. Many other purported naturally-occurring FPRL1 ligands, including serum amyloid A (SAA), beta-amyloid protein 42, lipoxin A4 and the bacterial tripeptide fMLP were tested.

human neutrophils = assay: Calcium mobilization in freshly isolated human neutrophils; type: cell-based; conditions: undigested chemokine or peptide (100 nM)
Description: Calcium Mobilization Assay. Cells were loaded for 1 hour with 2 μM indo-1/AM dye (Molecular Probes, Eugene, Oreg.) in culture medium, then washed with 10 ml PBS and resuspended at 10^6/ml in HBSS containing 1% FBS. Cytosolic calcium responses were determined using a Photon Technology International (Lawrenceville, N.J.) fluorimeter, with excitation at 350 nm and dual emission at 400 and 490 nm. Alternatively, cells were loaded with 5 μg/ml Fluo-4 AM dye (Molecular Probes, Eugene, Oreg.), then washed and analyzed on a Fluorometric Imaging Plate Reader 384 (FLIPR^384 Molecular Devices, Sunnyvale, Calif.), with 505 nm excitation and 530 nm emission.
as §1

With MLWRRKIGPQMTLSHAAG [SHAAGtide] the “inhibition of 125I-MIP-1α binding” value (CCR1) was “did not inhibit”, the “calcium responses and chemotaxis” value [1] was “able to induce calcium responses and chemotaxis” and the “calcium mobilization in the FPRL1 transfectant” value (FPRL1) was “fully effective”. For the same molecule, the “Designation and FPRL1 Activity” value (FPRL1; SHAAGtide and truncated/other variants) was “sequence; high” and the calcium mobilization (human neutrophils) was “equipotent to CCL23β Δ24”.

B1: CCL23β Δ24: truncated form of CCL23β lacking the 24-residue N-terminal domain, beginning with the SHAAGtide insertion (protein, listed as Homo sapiens)
chain: MLWRRKIGPQMTLSHAAGFHATSADCCISYTPRSIPCSLLESYFETNSECSKPGVIFLTKKGRRFCANPSDKQVQVCMRMLKLDTRIKTRKN
For B1, the “inhibition of 125I-MIP-1α binding” value (CCR1) was “moderate competitors”, the “calcium responses and chemotaxis” value [1] was “able to induce calcium responses and chemotaxis” and the “calcium mobilization in the FPRL1 transfectant” value (FPRL1) was “fully effective”. For the same molecule, the calcium mobilization (human neutrophils) was “very robust calcium response”.
